This experiment deals with T1, GCS (Canis lupus familiaris, UniProt A0A8I3MXG6).
T1 sequence (A0A8I3MXG6 1-394): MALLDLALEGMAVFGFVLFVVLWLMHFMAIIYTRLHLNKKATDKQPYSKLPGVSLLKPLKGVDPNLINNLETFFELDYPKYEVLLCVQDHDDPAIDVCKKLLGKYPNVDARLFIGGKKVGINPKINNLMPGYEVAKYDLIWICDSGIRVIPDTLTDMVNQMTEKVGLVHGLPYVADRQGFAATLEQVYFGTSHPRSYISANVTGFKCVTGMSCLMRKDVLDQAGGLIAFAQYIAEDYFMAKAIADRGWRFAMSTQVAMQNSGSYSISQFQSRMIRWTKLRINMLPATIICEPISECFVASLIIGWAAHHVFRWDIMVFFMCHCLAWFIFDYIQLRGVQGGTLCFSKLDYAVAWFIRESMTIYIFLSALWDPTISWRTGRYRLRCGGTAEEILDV
In words: Assay 1: GCS Enzymatic Assay (MDCK cell lysate, C6-NBD-Ceramide, LC/MS). Type of experiment: biochemical, canine. The settings on record: Table 3, MDCK cell lysate; for IC50: read-out: IC50 (nM) generated from Assay 1. The essentials: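 LC/MS/MS measurement of glucosylceramide and NBD-ceramide after a 1 h, 37 °C reaction with 100 μM UDP-glucose and 10 μM C6-NBD-ceramide gave IC50s or percent inhibition.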

With `CN(C(=O)C(=O)c1ccc(-c2ccc(F)cc2)cc1)[C@H](CN1CCCC1)[C@H](O)c1ccc(OC2CC2)c(F)c1` [Example 404, N-((1R,2R)-1-(4-cyclopropoxy-3-fluorophenyl)-1-hydroxy-3-(pyrrolidin-1-yl)propan-2-yl)-2-(4′-fluoro-[1,1′-biphenyl]-4-yl)-N-methyl-2-oxoacetamide], the IC50 is below 50 nM.

Consider `O=C(N[C@H](CN1CCCC1)[C@H](O)c1ccc(OC(F)F)cc1)C(=O)c1cc2ccc(Cl)cc2s1` [Example 405, 2-(6-chlorobenzo[b]thiophen-2-yl)-N-((1R,2R)-1-(4-(difluoromethoxy)phenyl)-1-hydroxy-3-(pyrrolidin-1-yl)propan-2-yl)-2-oxoacetamide], for which the IC50 was in the range of 50 to 5000 nM. In the case of `O=C(N[C@H](CN1CCCC1)[C@H](O)c1ccc(OC2CC2)c(Cl)c1)/C(CCc1ccc2cc(F)ccc2c1)=N/O` [Example 406, (E)-N-((1R,2R)-1-(3-chloro-4-cyclopropoxyphenyl)-1-hydroxy-3-(pyrrolidin-1-yl)propan-2-yl)-4-(6-fluoronaphthalen-2-yl)-2-(hydroxyimino)butanamide], the “% inhibition generated from Assay 1” value (values marked *) is recorded as “A* (the compound had a % inhibition of a percent inhibition of greater than or equal to about 50%)”.

One may read the IC50 as the point on the concentration scale where inhibition reaches its midpoint.

The values above are taken from patent US10227323B2, “Glucosylceramide synthase inhibitors for the treatment of diseases” (BIOMARIN PHARMACEUTICAL INC., priority 2013, dated 2019).
